Source: patent US20240318225A1, “TECHNIQUES FOR ISOLATION OR ANALYSIS OF BACTERIAL PATHOGENS FROM PATIENT SAMPLES” (General Electric Company, priority 2021, published 2024)

Test system: E. coli clinical isolate
Assay: microfluidic single cell antimicrobial susceptibility testing
Type: cell-based
Details: 8 μg/ml ampicillin; during the duration of the experiment
Protocol: The microfluidic device for single cell antimicrobial susceptibility testing was fabricated by soft lithography. The microchannel master mold was fabricated by photolithography patterning and reactive-ion etching of a silicon wafer. Microchannel layers were then fabricated by PDMS molding on the master mold. PDMS pre-polymer and cross-linker were mixed at 10:1 ratio. The mixture was poured on the master mold and incubated for at least 3 hours at 65° C. The single cell antimicrobial susceptibility testing device was fabricated by bonding the PDMS layer with a glass slide. Inlet and outlet reservoirs were created by punching the PDMS layer with a biopsy puncher.
To perform the microfluidic single cell antimicrobial susceptibility testing experiment, ampicillin was added to the enriched samples with concentrations of 0 μg/mL, 2 μg/mL, 4 μg/mL, and 8 μg/mL. Each respective solution was loaded into a microfluidic device by capillary force. The devices were then mounted onto an epi-fluorescence microscope (Leica DMI 4000B, objective 20× or 40×) with a microscope heating stage. The presence of bacteria was examined, and the bacterial growth was monitored continuously.
The disclosed workflows may be used for antimicrobial susceptibility testing using a microfluidic device. […]

CC1(C)S[C@@H]2[C@H](NC(=O)[C@H](N)c3ccccc3)C(=O)N2[C@H]1C(=O)O [ampicillin]
effect on bacteria at higher concentration: some bacteria were lysed
